Biological target: MAP kinase-activated protein kinase 2 (Homo sapiens, UniProt P49137)
Test: Inhibition of GST-tagged MAPKAPK2 assessed as [33P] incorporation after 40 mins by scintillation proximity assay

MAP kinase-activated protein kinase 2, sequence (P49137 whole entry): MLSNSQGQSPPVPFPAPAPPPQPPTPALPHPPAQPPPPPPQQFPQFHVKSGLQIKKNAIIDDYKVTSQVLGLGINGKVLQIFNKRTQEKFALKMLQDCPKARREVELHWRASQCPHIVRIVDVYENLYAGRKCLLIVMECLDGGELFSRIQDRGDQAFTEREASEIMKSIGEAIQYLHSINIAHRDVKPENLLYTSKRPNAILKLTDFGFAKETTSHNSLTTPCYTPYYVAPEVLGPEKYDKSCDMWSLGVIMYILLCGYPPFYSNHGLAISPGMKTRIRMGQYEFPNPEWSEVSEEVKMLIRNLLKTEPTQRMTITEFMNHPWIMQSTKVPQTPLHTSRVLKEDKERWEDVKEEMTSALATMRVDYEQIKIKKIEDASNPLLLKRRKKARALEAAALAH

| IC50 | SMILES |
| --- | --- |
| 22 µM | CC(C)=CCC/C(C)=C/C[C@]12C[C@@H](CC=C(C)C)C(C)(C)[C@](C/C=C(\C)CCC=C(C)C)(C(=O)C(C(=O)c3ccc(O)c(O)c3)C1=O)C2=O (some centres not stated) [guttiferone O] |
| 22 µM | CC(C)=CCC/C(C)=C/C[C@]12C[C@@H](CC=C(C)C)[C@](C)(CCC=C(C)C)[C@](CC=C(C)C)(C(=O)C(C(=O)c3ccc(O)c(O)c3)C1=O)C2=O (some centres not stated) [guttiferone P] |

Reference: BindingDB's records for doi:10.1021/np900246t (Griffith University, 2009)
